Key:
mouse skin [1] = conditions: cited from earlier work; for contact sensitization in a mouse skin model (mast cell degranulating agents): in vivo
mouse skin [2] = conditions: cited from earlier work
[3] = Rosmarinic acid 5%; cited from earlier work
[4] = DPPH* free-radical scavenging anti-oxidant assay; conditions: absorbance at 595 nm, after 30 minutes of incubation at 25° C.; read-out: molar activity (EC50, concentration that lowers the zero time optical absorbance of DPPH by 50 percent)
Experimental: Solutions of test compounds were assayed for their antioxidant activity by the free-radical scavenging method that uses diphenylpicryl hydrazine (DPPH*) reagent as described previously (Bonina et al, 2003). In order to standardize the activity, we defined for each compound, an EC50 value as the concentration that lowers the zero time optical absorbance of DPPH at 595 nm by 50 percent measured after 30 minutes of incubation at 25° C.

[5] = system: volar arm skin of volunteers; assay: 24-hour occlusive patch (Finn chamber) anti-irritant test with 0.5% benzalkonium chloride carrier gels; assay type: in vivo, human
Experimental: Occlusive patch testing was conducted on extracts prepared by starch gel encapsulation in a oil-in water emulsion system previously described (Wille, 2003).
Anti-irritant assays: All carrier system gels were prepared with 0.5% benzalkonium chloride, a mild irritant. To test for anti-irritancy, the irritant-containing carrier gels were also loaded with the test botanical extracts (experimentals). The control and test gels were deposited (100 microliters) on 10 mm square circular filter paper discs and placed in side of Finn chambers (20 mm square), which were then applied to the volar arm skin of volunteers. The chambers were affixed to skin with non-allergic adhesive tape and left in place for 24 hours. Upon termination of the treatments, the chambers were removed and the skin gently wiped clean with moistened cotton swabs. The exposed skin was first examined for signs of erythema (redness) and induration (swelling), and skin sites photographed. The exposed skin sites were probed for skin capacitance (skin moisture levels) using a Corneometer instrument (Courage & Khazaka, Koln, Germany).

HaCat keratinocytes = assay: Retinoid-stimulated autocrine clonal growth of HaCat keratinocytes (biochemical assay for anti-irritant activity); assay type: cell-based, human; conditions: 10 μM, 48 hours after treatment, retinoid-stimulated autocrine growth conditions
Experimental: Since retinoids irritate skin leading to epidermal hyperplasia, we have employed an in vitro cell culture method to detect antioxidants that act to inhibit retinoid-stimulated autocrine growth of human keratinocytes.
Method: An immortalized line of human epidermal kertatinocytes, HaCat keratinocytes, can be cultured in a serum-free culture medium. Sterile Petri dishes (35 mm^2) are seeded at 5,000 cells per cm^2 and placed in a humidifed CO2 incubator at 37° C. for 3-5 days or until the culture reaches about 30% confluent monolayer growth. The dishes are washed once with ice-cold serum-free media lacking EGF and insulin, and refed 2.5 ml of serum-free culture medium containing 5 ug/ml insulin and retinyl acetate (RA, 3×10^−8 M). Duplicate control dishes are fixed and stained with 0.2% crystal violet to record the amount of clonal growth prior to refeeding with fresh RA-containing medium. Test dishes refed RA and insulin are split into three groups in duplicate. Group A is refed on the RA plus insulin medium. Group B is refed RA plus insulin medium and a […] inhibitor (PD 153035), and Group C is refed medium containing RA plus insulin and from 0.1 to 5% of a hydroalcoholic botanical extract. All dishes are adjusted to have the same final concentration of alcohol (1%). All dishes are placed back in the incubator for 2 and 4 days. They are fixed and stained with 0.2% crystal violet. […]

Q: What does the source list for `C=C(CC)C(=O)c1ccc(OCC(=O)O)c(Cl)c1Cl` [Ethacrynic acid]?
A: prevention of contact sensitization due to Clonidine, Chlorpheniramine, Albuterol and Nadolol (mouse skin [1]; delivery of the sensitizing drugs to mouse skin): effective; prevention of skin irritation due to 2,4-dinitro-chlorobenzene, arachidonic acid, phorbol myristic acid, trans-retinoic acid and lactic acid (mouse skin [2]; topical application to mouse): effective

Q: For `O=C(O)COc1ccccc1` [Phenoxyacetic acid], which “contact sensitization due to para-phenylenediamine” value (mouse skin [1]; application of the hair dye to mouse skin) is on record?
A: prevent contact sensitization

Q: What about the “skin irritation due to a panel of known skin irritants including sodium lauryl sulfate” value (mouse skin [2]; mouse, in vivo) of the same compound?
A: block skin irritation

Q: With `O=C(/C=C/c1ccc(O)c(O)c1)O[C@H](Cc1ccc(O)c(O)c1)C(=O)O` [Rosmarinic acid] as the compound, how does the “reduction of the irritating action of alpha-hydroxy acids (lactic and glycolic acids)” value [3] read?
A: over three-fold

Q: For `COc1ccc(CCN(C)CCCC(C#N)(c2ccc(OC)c(OC)c2)C(C)C)cc1OC` (stereo not shown) [Verapamil], which “minimizing contact sensitization due to Nadolol” value (mouse skin [1]; topical application of Nadolol to mouse skin) is on record?
A: effective

Q: Which EC50 [4] does the source give for `O=C1O[C@H]([C@@H](O)CO)C(O)=C1O` [ascorbic acid] here?
A: 26 µM

Q: For `CCCCCCCCCCCCCCCC(=O)OC[C@H](O)[C@H]1OC(=O)C(O)=C1O` [ascorbyl palmitate], which EC50 [4] is on record?
A: 30 µM

Q: For `COc1cc(CNC(=O)CCCC/C=C/C(C)C)ccc1O` [capsaicin], which “contact sensitization in a mouse skin model (mast cell degranulating agents)” value (mouse skin [1]) is on record?
A: prevent contact sensitization

Q: For `O=C(O)/C=C\c1c[nH]cn1` [cis-urocanic acid], which “contact sensitization in a mouse skin model (mast cell degranulating agents)” value (mouse skin [1]) is on record?
A: prevent contact sensitization

Q: For `O=C(O)c1cc(O)c(O)c(O)c1` [gallic acid, 3,4,5-trihydroxybenzoic acid], which “effect on benzalkonium chloride induced skin irritation” value ([5]; 24 hour occlusion) is on record?
A: anti-irritant effect

Q: What about the irritancy to skin ([5]; gallic acid alone, 24 hours of occlusion) of the same compound?
A: not irritating to skin

Q: And the skin hydration profile ([5]; gallic acid alone, after 24 hours of occlusion)?
A: does not alter skin hydration profile

Q: For `O.O.O=c1c(O)c(-c2ccc(O)c(O)c2)oc2cc(O)cc(O)c12` [quercetin dihydrate], which EC50 [4] is on record?
A: 86 µM

Q: What about the “clonal growth relative to the untreated control” value (HaCat keratinocytes) of the same compound?
A: completely inhibited

Q: For `Cc1c(C)c2c(c(C)c1O)CC[C@@](C)(CCC[C@H](C)CCC[C@H](C)CCCC(C)C)O2` [vitamin E, alpha-tocopherol], which EC50 [4] is on record?
A: 46 µM
